The test system of one assay is wt-OMVs. The assay is described as follows: SPR chaser analysis (residence time), wt-OMVs. It counts as binding, E. coli. To be noted: for t1/2: n≥3, (SD). How it is done:
The off-rate of the tightly bound fraction was estimated using a chaser analysis, where OMVs were pre-saturated with polymyxin B and then re-saturated after an extended time interval (Supplementary Information Fig. S11A). […] A t1/2 of >6 h was determined for polymyxin B binding to OMVs at both 25 and 37 °C (SI Table S3). The t1/2 of brevicidine, also measured by chaser analysis, was approximately 1 h on both wt-OMVs and polymyxin-resistant-OMVs (SI Table S3).
Binding and kinetic analysis of SPR-OMV assays […]
To determine the residence time of the test compound with OMVs, the ‘chaser method’ was used because it accounts for drift that can occur in the system over long incubation times 13. OMVs were loaded onto the chip as described above then 5 µM polymyxin B was injected using the ‘low-sample consumption’ setting for 300 sec ([…] flow rate), followed by a 240 sec dissociation time. A second dose of 5 µM polymyxin B was then injected for 60 sec ([…]) to assure saturation followed by a 2 h dissociation time prior to the ‘chaser’, a 60 sec pulse of 5 µM polymyxin B. The RUs of associated polymyxin B were determined 120 sec after the start of the dissociation. The change in RUs from before dosing to after the second dose, and the change in RUs from prior to the ‘chaser’ dose and 120 sec after the start of its dissociation were used to calculate the fraction occupancy of the material and the residence time/half-life as described 13. […]
PMBN) to LPS for 20 min. […]
20 sec with a Solarus plasma cleaner (Gatan). Grids were blotted and plunge-frozen by Vitrobot (ThermoFisher Scientific, Waltham, MA) at 4°C, 100% relative humidity, blot force 7, and a 3 sec […]
TEM data collection was performed using a Titan Krios G3i (ThermoFisher Scientific, Waltham, MA) operating at 300 kV equipped with a BioQuantum energy filter and a K3 Summit direct electron detector operating at a nominal magnification of 105,000x (0.838 Å/pixel), an energy slit width of 20 eV, defocus range -1 to -3 μm, 3-sec exposure time, 60 frames per movie, a total electron fluence of ~64 e/Å2. Microscope and camera automation was accomplished by SerialEM14, and image processing (motion correction & CTF estimation) was performed using […]
Standard cryo-EM image processing software and methods were incompatible with the vesicle images, so a blinded visual scoring method for image analysis was used. Approximately 50 images from each sample and treatment condition that each contained at least one OMV (pooled in a single folder and blinded) were scored for number of vesicles touching (0-10+), and if the vesicle membranes appeared disrupted or abnormal. Sampling was not completely random as images of vesicles could not be obtained from areas with significant clumping. Images shown in […]

In assay [1] the test system is polymyxin B-resistant E. coli PmrA^G53E cells. The assay is described as follows: Whole cell SPR, E. coli PmrA^G53E. In kind it is binding. How it is done:
Bacterial strains were grown in LB or LB with 0.2% arabinose and carbenicillin (50 μg/mL) to log phase (OD600 approximately 0.4–0.6), centrifuged for 10 min at 2500 × g (3500 rpm using a tabletop centrifuge), and re-suspended in PBS to a final OD600 of approximately 5. SPR on whole bacterial cells was performed and analyzed as described for OMVs on C1 chip, but with an additional carry-over wash prior to the capture. Regeneration of the chip after whole cell binding also required additional steps ([…] flow rate): (1) PBS supplemented with 32 mM MgCl2 for 120 s, (2) 2.5 M NaCl for 30 s, (3) 0.5% SDS (Desorb 1, Cytiva) for 60 s with carry over controls between.

Bridge positions count the residues as written; N and C are the ends. Square brackets hold non-standard residues; d marks the D form. Peptide text beside a SMILES is read from it. * marks the point of attachment. X1 = CC[C@H](C)CCCCC(=O)*; Dab = NCC[C@H](N)C(=O)O

As for `CC[C@H](C)CCCCC(=O)N[C@@H](CCN)C(=O)N[C@H](C(=O)N[C@@H](CCN)C(=O)N[C@H]1CCNC(=O)[C@H]([C@@H](C)O)NC(=O)[C@H](CCN)NC(=O)[C@H](CCN)NC(=O)[C@H](CC(C)C)NC(=O)[C@@H](Cc2ccccc2)NC(=O)[C@H](CCN)NC1=O)[C@@H](C)O` [Polymyxin B] (X1-[Dab]T[Dab][Dab][Dab][dF]L[Dab][Dab]T; lactam 4-C (inferred); N-terminus assumed), the “t1/2 of tightly bound state” value with wt-OMVs (25 and 37 °C) is more than 6 h. The t1/2 in the assay with wt-OMVs (25 °C) is on record as 6.86 (2.11) h; in the assay with wt-OMVs (37 °C) it was 7.27 (2.15) h. In addition, the “SPR binding profile” value in assay [1] is recorded as “same polymyxin B binding profiles were observed”.

The values above are taken from publication PMC11148078, “Potent activity of polymyxin B is associated with long-lived super-stoichiometric accumulation mediated by weak-affinity binding to lipid A” (Nature Communications, 2024).
